Test results reported in ChEMBL document CHEMBL1130816, “Synthesis and antibacterial activity of O-methyl derivatives of azalide antibiotics: II. 6-OME derivatives via clarithromycin” (1998).
≈ marks a conversion by molar mass, not a printed value.

Key:
Type in all cases: functional
Staphylococcus aureus = test: Compound was evaluated for antibacterial activity against Staphylococcus aureus (MB2865) sensitive strain
Enterococcus faecalis = test: Compound was evaluated for antibacterial activity against Enterococcus faecalis (MB5407) sensitive strain
Enterococcus faecium = test: Compound was evaluated for antibacterial activity against Enterococcus faecium (MB5516) sensitive strain
Streptococcus pneumoniae = test: Compound was evaluated for antibacterial activity against Streptococcus pneumoniae (MB3957) sensitive strain
Bacillus subtilis = test: Compound was evaluated for antibacterial activity against Bacillus subtilis (MB5586) sensitive strain
Streptococcus pyogenes = test: Compound was evaluated for antibacterial activity against Streptococcus pyogenes (MB2874) sensitive strain

MIC (Staphylococcus aureus)	MIC (Enterococcus faecalis)	MIC (Enterococcus faecium)	MIC (Streptococcus pneumoniae)	MIC (Bacillus subtilis)	MIC (Streptococcus pyogenes)	Structure (SMILES)
32 µg/mL (≈ 39.7 µM)	32 µg/mL (≈ 39.7 µM)	8 µg/mL (≈ 9.94 µM)	4 µg/mL (≈ 4.97 µM)	8 µg/mL (≈ 9.94 µM)	0.5 µg/mL (≈ 0.621 µM)	CC[C@H]1OC(=O)[C@H](C)[C@@H](O[C@H]2C[C@@](C)(OC)[C@@H](OC)[C@@H](C)O2)[C@H](C)[C@@H](O[C@@H]2O[C@H](C)C[C@@H](N(C)C)[C@H]2O)[C@](C)(OC)C[C@@H](C)N(C)C[C@H](C)[C@@H](OC)[C@]1(C)OC
2 µg/mL (≈ 2.62 µM)	16 µg/mL (≈ 21 µM)	1 µg/mL (≈ 1.31 µM)	0.5 µg/mL (≈ 0.655 µM)	1 µg/mL (≈ 1.31 µM)	0.06 µg/mL (≈ 0.0786 µM)	CC[C@H]1OC(=O)[C@H](C)[C@@H](O[C@H]2C[C@@](C)(OC)[C@@H](O)[C@@H](C)O2)[C@H](C)[C@@H](O[C@@H]2O[C@H](C)C[C@@H](N(C)C)[C@H]2O)[C@](C)(OC)C[C@@H](C)N(C)C[C@H](C)[C@@H](O)[C@]1(C)O
0.3 µg/mL (≈ 0.401 µM)	2 µg/mL (≈ 2.67 µM)	0.125 µg/mL (≈ 0.167 µM)	< 0.06 µg/mL	0.3 µg/mL (≈ 0.401 µM)	< 0.06 µg/mL	CC[C@H]1OC(=O)[C@H](C)[C@@H](O[C@H]2C[C@@](C)(OC)[C@H](O)[C@H](C)O2)[C@H](C)[C@@H](O[C@@H]2O[C@H](C)C[C@H](N(C)C)[C@H]2O)[C@](C)(O)C[C@@H](C)N(C)C[C@H](C)[C@@H](O)[C@]1(C)O

The next lines start with the compound.

Structure (SMILES)	MIC (Staphylococcus aureus)	MIC (Enterococcus faecalis)	MIC (Enterococcus faecium)	MIC (Streptococcus pneumoniae)	MIC (Bacillus subtilis)	MIC (Streptococcus pyogenes)
CC[C@H]1OC(=O)[C@H](C)[C@@H](O[C@H]2C[C@@](C)(OC)[C@@H](O)[C@@H](C)O2)[C@H](C)[C@@H](O[C@@H]2O[C@H](C)C[C@@H](N(C)C)[C@H]2O)[C@](C)(OC)C[C@@H](C)CN(C)[C@H](C)[C@@H](O)[C@]1(C)O	2 µg/mL (≈ 2.62 µM)	8 µg/mL (≈ 10.5 µM)	1 µg/mL (≈ 1.31 µM)	0.5 µg/mL (≈ 0.655 µM)	1 µg/mL (≈ 1.31 µM)	0.12 µg/mL (≈ 0.157 µM)
CC[C@H]1OC(=O)[C@H](C)[C@@H](O[C@H]2C[C@@](C)(OC)[C@@H](OC)[C@@H](C)O2)[C@H](C)[C@@H](O[C@@H]2O[C@H](C)C[C@@H](N(C)C)[C@H]2O)[C@](C)(O)C[C@@H](C)N(C)C[C@H](C)[C@@H](OC)[C@]1(C)OC	32 µg/mL (≈ 40.5 µM)	32 µg/mL (≈ 40.5 µM)	8 µg/mL (≈ 10.1 µM)	4 µg/mL (≈ 5.06 µM)	2 µg/mL (≈ 2.53 µM)	0.5 µg/mL (≈ 0.632 µM)
CC[C@H]1OC(=O)[C@H](C)[C@@H](O[C@H]2C[C@@](C)(OC)[C@@H](O)[C@H](C)O2)[C@H](C)[C@@H](O[C@@H]2O[C@H](C)C[C@H](N(C)C)[C@H]2O)[C@](C)(O)C[C@@H](C)CN(C)[C@H](C)[C@@H](O)[C@]1(C)O [AZITHROMYCIN]	0.5 µg/mL (≈ 0.668 µM)	4 µg/mL (≈ 5.34 µM)	0.25 µg/mL (≈ 0.334 µM)	< 0.06 µg/mL	1 µg/mL (≈ 1.34 µM)	0.03 µg/mL (≈ 0.0401 µM)
CC[C@H]1OC(=O)[C@H](C)[C@@H](O[C@H]2C[C@@](C)(OC)[C@@H](OC)[C@@H](C)O2)[C@H](C)[C@@H](O[C@@H]2O[C@H](C)C[C@@H](N(C)C)[C@H]2O)[C@](C)(O)C[C@@H](C)N(C)C[C@H](C)[C@@H](O)[C@]1(C)O	8 µg/mL (≈ 10.5 µM)	8 µg/mL (≈ 10.5 µM)	2 µg/mL (≈ 2.62 µM)	0.5 µg/mL (≈ 0.655 µM)	4 µg/mL (≈ 5.24 µM)	0.03 µg/mL (≈ 0.0393 µM)
